Reference: patent US20250282820A1, “PEPTIDE COMPLEX HAVING TRKB BINDING ACTIVITY” (PEPTIDREAM INC, priority 2022, published 2025)
*1 amine or outer side, *2 acyl side, *3 side chain or, on linkers, in order; H or OH if unused. Where a SMILES comes first, the peptide text is derived from it. Bridges are numbered along the chain shown (N, C = ends). Roman numbers before positions name the chains, in order. [ ]: non-standard residue; d: D form. CO(CH2CH2O)13CH2CH2CO = O=C(CCOCCOCCOCCOCCOCCOCCOCCOCCOCCOCCOCCOCCOCCC(=O)[*:2])[*:1]; 3Pal = N[C@@H](Cc1cccnc1)C(=O)O

What was measured:
Experiment in all cases: Surface plasmon resonance (SPR), Biacore T200, single cycle kinetics
Assay type in all cases: binding
[1] = target: T1, Recombinant Human TrkB Fc Chimera Protein (Homo sapiens, UniProt Q16620); details: for Kd: calculated by employing the lower theoretical limit of 0.00001 (1/s) for koff, read-out: Kd (dissociation constant) of binding to TrkB
T1 construct: purchased R&D Systems
Procedure: (§1) A CM3 sensor chip (Cytiva) was inserted into a Biacore T200 (Cytiva). Three priming runs were performed using running buffer: HBS-EP+ (Cytiva). The system was then equilibrated at a flow rate of 30 μL/min. After mixing in 50 μL each of a 60 mM EDC solution (Cytiva) and 650 mM NHS solution (Cytiva), the reaction was performed at a flow rate of 10 μL/min for 420 seconds. Then, 135 μL of a 30 ng/μL anti-human IgG (Fc) antibody (Cytiva) solution was prepared by dilution with a 10 mM acetic acid solution (pH 5.0), and the anti-human IgG (Fc) antibody was immobilized on the CM3 sensor chip by reacting it at a flow rate of 10 μL/min for 360 seconds. After immobilization, capping was performed by reacting it with a 1.0M ethanolamine solution (Cytiva) at a flow rate of 10 μL/min for 420 seconds. Each 200 nM Recombinant Human TrkA Fc Chimera Protein, Recombinant Human TrkB Fc Chimera Protein, Recombinant Human TrkC Fc Chimera Protein (R&D Systems) solution was reacted with the immobilized antibody at a flow rate of 10 μL/min for 60 seconds. A liquid prepared by dissolving each peptide at 10 mM in DMSO solution was diluted with running buffer to prepare a peptide-dissolved solution at a final concentration of 10 μM. Subsequently, 50 nM, 25 nM, 12.5 nM, 5 nM, and 2.5 nM peptide solutions were prepared. Using the samples described above, the kinetics of peptide against TrkA, TrkB, and TrkC were obtained by SPR measurements. After reacting a peptide with TrkA, TrkB, and TrkC, regeneration was performed using a reaction with a 3M MgCl solution at 10 μL/min for 180 seconds.
(§2) The kinetic evaluation model was Single Cycle Kinetics, and curve fitting was performed using Biacore T200 Evaluation Software Version 3.0 (Cytiva). The binding of peptides to TrkA, TrkB, and TrkC was evaluated by performing least-squares curve fitting on the obtained sensorgrams and calculating their Kd values (dissociation constants).

[2] = target: T2, Recombinant Human TrkA Fc Chimera Protein (Homo sapiens, UniProt P04629); details: FIG. 4
T2 construct: purchased R&D Systems
T2 sequence (P04629 with tags, fused parts or gaps limits assumed): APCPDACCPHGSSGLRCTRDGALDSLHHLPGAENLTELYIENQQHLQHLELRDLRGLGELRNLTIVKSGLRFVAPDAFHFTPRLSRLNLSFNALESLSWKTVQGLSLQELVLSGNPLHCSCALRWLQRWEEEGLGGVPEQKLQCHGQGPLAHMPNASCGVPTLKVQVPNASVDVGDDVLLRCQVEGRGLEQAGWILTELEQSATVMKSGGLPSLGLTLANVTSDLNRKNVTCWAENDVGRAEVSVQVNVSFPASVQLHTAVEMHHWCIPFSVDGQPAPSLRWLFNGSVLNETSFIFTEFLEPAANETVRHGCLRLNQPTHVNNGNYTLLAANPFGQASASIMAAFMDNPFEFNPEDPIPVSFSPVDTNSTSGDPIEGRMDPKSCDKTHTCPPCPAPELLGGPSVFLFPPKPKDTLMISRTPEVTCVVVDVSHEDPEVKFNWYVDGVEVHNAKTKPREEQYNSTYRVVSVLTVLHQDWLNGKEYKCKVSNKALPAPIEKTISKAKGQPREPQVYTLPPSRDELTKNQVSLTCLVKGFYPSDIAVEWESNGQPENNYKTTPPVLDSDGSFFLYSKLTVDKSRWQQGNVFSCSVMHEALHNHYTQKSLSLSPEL
Procedure: as §1, §2

[3] = target: T3, Recombinant Human TrkC Fc Chimera Protein (Homo sapiens, UniProt Q16288); details: FIG. 4
T3 construct: purchased R&D Systems
T3 sequence (Q16288 with tags, fused parts or gaps limits assumed): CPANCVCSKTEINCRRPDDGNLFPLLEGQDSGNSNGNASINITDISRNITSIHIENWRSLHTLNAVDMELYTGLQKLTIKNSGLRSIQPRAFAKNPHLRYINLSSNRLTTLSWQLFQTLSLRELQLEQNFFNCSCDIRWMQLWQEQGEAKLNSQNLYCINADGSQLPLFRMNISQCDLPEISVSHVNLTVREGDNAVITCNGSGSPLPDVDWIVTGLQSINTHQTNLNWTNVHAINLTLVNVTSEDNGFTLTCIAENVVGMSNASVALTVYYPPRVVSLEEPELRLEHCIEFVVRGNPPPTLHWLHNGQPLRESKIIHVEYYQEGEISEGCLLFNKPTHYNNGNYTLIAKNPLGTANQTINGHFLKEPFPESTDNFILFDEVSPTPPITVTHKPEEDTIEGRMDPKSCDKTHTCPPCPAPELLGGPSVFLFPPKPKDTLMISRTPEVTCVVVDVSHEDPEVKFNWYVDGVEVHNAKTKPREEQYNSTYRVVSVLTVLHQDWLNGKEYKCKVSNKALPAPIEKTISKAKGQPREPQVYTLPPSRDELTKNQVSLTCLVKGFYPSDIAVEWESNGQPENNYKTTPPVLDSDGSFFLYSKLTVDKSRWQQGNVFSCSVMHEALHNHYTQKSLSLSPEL
Procedure: as §1, §2

SMILES	koff (dissociation rate constant) of binding to TrkB [1]	Kd [1] [nM]	binding to TrkA [2]	binding to TrkC [3]
CC(C)[C@@H]1NC(=O)[C@H](Cc2cccnc2)NC(=O)[C@H](CCC(=O)O)NC(=O)[C@H](CO)NC(=O)[C@H](Cc2ccc(O)cc2)NC(=O)[C@H]([C@@H](C)O)NC(=O)[C@@H]2CCCN2C(=O)[C@H](Cc2c[nH]c3ccccc23)NC(=O)[C@H](Cc2cccnc2)NC(=O)[C@H](Cc2ccc(O)cc2)NC(=O)[C@@H]2CCCN2C(=O)[C@H](CO)NC(=O)[C@H](Cc2ccccc2)NC(=O)CSC[C@@H](C(=O)NCC(=O)N[C@@H](CCCCNC(=O)CCOCCOCCOCCOCCOCCOCCOCCOCCOCCOCCOCCOCCOCCC(=O)NCCCC[C@H](NC(=O)CNC(=O)[C@@H]2CSCC(=O)N[C@@H](Cc3ccccc3)C(=O)N[C@@H](CO)C(=O)N3CCC[C@H]3C(=O)N[C@@H](Cc3ccc(O)cc3)C(=O)N[C@@H](Cc3cccnc3)C(=O)N[C@@H](Cc3c[nH]c4ccccc34)C(=O)N3CCC[C@H]3C(=O)N[C@@H]([C@@H](C)O)C(=O)N[C@@H](Cc3ccc(O)cc3)C(=O)N[C@@H](CO)C(=O)N[C@@H](CCC(=O)O)C(=O)N[C@@H](Cc3cccnc3)C(=O)N[C@@H](C(C)C)C(=O)N[C@@H](CCC(=O)O)C(=O)N2)C(N)=O)C(N)=O)NC(=O)[C@H](CCC(=O)O)NC1=O [compound 48] (I: {CH2CO}-FSPY[3Pal]WPTYSE[3Pal]VECGK-NH2 / II: {CH2CO}-FSPY[3Pal]WPTYSE[3Pal]VECGK-NH2; linker I:17-II:17 via CO(CH2CH2O)13CH2CH2CO; thioether I:N-I:15, II:N-II:15)	exceeded the measurement limit	≤ 0.1	no binding	no binding
CC(C)[C@@H]1NC(=O)[C@H](Cc2cccnc2)NC(=O)[C@H](CCC(=O)O)NC(=O)[C@H](CO)NC(=O)[C@H](Cc2ccc(O)cc2)NC(=O)[C@H]([C@@H](C)O)NC(=O)[C@@H]2CCCN2C(=O)[C@H](Cc2c[nH]c3ccccc23)NC(=O)[C@H](Cc2cccnc2)NC(=O)[C@H](Cc2ccc(O)cc2)NC(=O)[C@@H]2CCCN2C(=O)[C@H](CCC(=O)O)NC(=O)[C@H](Cc2ccccc2)NC(=O)CSC[C@@H](C(=O)NCC(=O)N[C@@H](CCCCNC(=O)CCOCCOCCOCCOCCOCCOCCOCCOCCOCCOCCOCCOCCOCCC(=O)NCCCC[C@H](NC(=O)CNC(=O)[C@@H]2CSCC(=O)N[C@@H](Cc3ccccc3)C(=O)N[C@@H](CCC(=O)O)C(=O)N3CCC[C@H]3C(=O)N[C@@H](Cc3ccc(O)cc3)C(=O)N[C@@H](Cc3cccnc3)C(=O)N[C@@H](Cc3c[nH]c4ccccc34)C(=O)N3CCC[C@H]3C(=O)N[C@@H]([C@@H](C)O)C(=O)N[C@@H](Cc3ccc(O)cc3)C(=O)N[C@@H](CO)C(=O)N[C@@H](CCC(=O)O)C(=O)N[C@@H](Cc3cccnc3)C(=O)N[C@@H](C(C)C)C(=O)N[C@@H](CCC(=O)O)C(=O)N2)C(N)=O)C(N)=O)NC(=O)[C@H](CCC(=O)O)NC1=O [compound 56] (I: {CH2CO}-FEPY[3Pal]WPTYSE[3Pal]VECGK-NH2 / II: {CH2CO}-FEPY[3Pal]WPTYSE[3Pal]VECGK-NH2; linker I:17-II:17 via CO(CH2CH2O)13CH2CH2CO; thioether I:N-I:15, II:N-II:15)	exceeded the measurement limit	≤ 0.1	no binding	no binding
